The test system of data set [1] is phenyl benzoquinone contortion. Description: phenyl benzoquinone contortion test (analgesic properties). Type of data set: in vivo, mouse. The conditions noted are these: 0.5 h. How it is done:
The activity in the phenyl benzoquinone contortion test of […] et al., J. Pharm. Exptl. […] Dose expressed in mg/kg in the mouse, 30 minutes before intraperitoneal injection of the algogenic agent. The results are expressed in percentage variation of the number of contortions.

The next data set in a line: solubility. The conditions noted are these: in words. Type of data set: physicochemical.
A short description of data set [2]: analgesic activity, test not specified. In kind it is in vivo. To be noted: in words.
The mark [3] stands for this setting: mouse, oral, 30 minutes before intraperitoneal injection of the algogenic agent, read-out: ED50.

Read-outs that look alike come from different tables or passages of the source.

Here are results for twelve compounds from US4677105A, “2-alkoxycarbonylalkyl-3-oxo-5,6-diaryl-as-triazines having utility as therapeutics” (PF Medicament, priority 1985, dated 1987).

Broadly, the ED50 is the dose at which the effect has come halfway, by size or by number of responders. Take `CC(=O)Oc1ccccc1C(=O)O` [Aspirin, reference compound]: in data set [1] (Mus musculus, po), the ED50 came out at 100 mg/kg.
Take `CCOC(=O)Cn1nc(-c2ccc(OC)cc2)c(-c2ccc(OC)cc2)nc1=O` [Example 1, 2-ethoxy carbonyl-methyl-3-oxo-5,6-di(paramethoxyphenyl)-as-triazine]: in “solubility”, the “solubility (insoluble in)” value was “Insoluble in water, dilute bases and acids”; the “solubility (soluble in)” value was “Soluble in methylene chloride, chloroform, ether; alcohols and hot benzene”.
For the compound `CCOC(=O)C(C)n1nc(-c2ccc(O)cc2)c(-c2ccc(O)cc2)nc1=O` (centres unmarked) [Example 2, 2-(1-ethoxycarbonyl-1-ethyl)-3-oxo-5,6-di(parahydroxyphenyl)-as-triazine], in the data set “solubility”, the “solubility (insoluble in)” value is “Insoluble in water, dilute bases and acids, benzene, chloroform, methylene chloride, ether”; the “solubility (soluble in)” value was “Soluble in hot alcohols”.
Regarding `CCOC(=O)C(C)n1nc(-c2ccc(OC)cc2)c(-c2ccc(OC)cc2)nc1=O` (centres unmarked) [Example 3, 2-(1-ethoxycarbonyl-1-ethyl)-3-oxo-5,6-di(paramethoxyphenyl)-as-triazine], the ED50 in data set [1] (setting [3]) came to 13 mg/kg. In addition, in “solubility”, the “solubility (insoluble in)” value is “Insoluble in water, dilute bases and acids”; the “solubility (soluble in)” value was “Soluble in hot alcohols, benzene, chloroform, methylene chloride and ether”.
For the compound `CCOC(=O)C(CC)n1nc(-c2ccc(OC)cc2)c(-c2ccc(OC)cc2)nc1=O` (centres unmarked) [Example 4, 2-(1-ethoxycarbonyl-1-propyl)-3-oxo-5,6-di(paramethoxyphenyl)-as-triazine], in data set [1] (setting [3]), the ED50 is 11 mg/kg. In “solubility”, the “solubility (insoluble in)” value is “Insoluble in water, dilute bases and acids, ether”; the “solubility (soluble in)” value was “Soluble in hot alcohols, benzene, methylene chloride, chloroform”.
`CCCC(C(=O)OCC)n1nc(-c2ccc(OC)cc2)c(-c2ccc(OC)cc2)nc1=O` (centres unmarked) [Example 5, 2-(1-ethoxycarbonyl-1-butyl)-3-oxo-5,6-di(paramethoxyphenyl)-as-triazine]: the ED50 in data set [1] (setting [3]) is 16 mg/kg. For the same compound, in the data set “solubility”, the “solubility (insoluble in)” value was “Insoluble in water, dilute bases and acids”; the “solubility (soluble in)” value is given as “Soluble in hot alcohols, benzene, methylene chloride, chloroform, ether”.
As to `COC(=O)C(C)n1nc(-c2ccc(OC)cc2)c(-c2ccc(OC)cc2)nc1=O` (centres unmarked) [Example 6, 2-(1-methoxycarbonylethyl)-3-oxo-5,6-di(paramethoxyphenyl)-as-triazine], the ED50 in data set [1] (setting [3]) was determined as 12 mg/kg. Besides, in the data set “solubility”, the “solubility (insoluble in)” value is on record as “Insoluble: Water, ether” and the “solubility (soluble in)” value was “Soluble in hot alcohols”.
As for `CCOC(=O)C(C)n1nc(-c2ccccc2)c(-c2ccccc2)nc1=O` (centres unmarked) [Example 7, 2-(1-ethoxycarbonyl-1-ethyl)-3-oxo-5,6-di (phenyl)-as-triazine], the ED50 in data set [1] (setting [3]) was found to be 18 mg/kg. The analgesic activity entry in data set [2] is on record as “effective analgesic agent”.
With `CCOC(=O)C(C)n1nc(-c2ccc(C)cc2)c(-c2ccc(C)cc2)nc1=O` (centres unmarked) [Example 8, 2-(1-ethoxycarbonyl-1-ethyl)-3-oxo-5,6-di(p-methylphenyl)-as-triazine], the ED50 in data set [1] (setting [3]) was found to be 12 mg/kg. Besides, the analgesic activity entry in data set [2] is on record as “effective analgesic agent”.
`CCOC(=O)C(C)n1nc(-c2ccc(Cl)cc2)c(-c2ccc(Cl)cc2)nc1=O` (centres unmarked) [Example 9, 2-(1-ethoxycarbonyl-1-ethyl)-3-oxo-5,6-di (p-chlorophenyl)-as-triazine]: in data set [1] (setting [3]), the ED50 came to 10 mg/kg. Also, the analgesic activity result in data set [2] is “effective analgesic agent”.
In the case of `CCOC(=O)C(C)n1nc(-c2ccc(OC)cc2)c(-c2ccc(Cl)cc2)nc1=O` (centres unmarked) [Example 10, 2-(1-ethoxycarbonyl-1-ethyl)-3-oxo-5,6-(p-chloro-p-methoxy)-5,6-as-triazine], the ED50 in data set [1] (setting [3]) was determined as 12 mg/kg. Further, the analgesic activity result in data set [2] is reported as “effective analgesic agent”.
Consider `O=C(OCC(O)CO)c1ccccc1Nc1ccnc2cc(Cl)ccc12` (centres unmarked) [Glaphenine, reference compound], for which the ED50 in data set [1] (setting [3]) is 35 mg/kg.
